Reference: paper PMC6792352, “Limited Chemical Structural Diversity Found to Modulate Thyroid Hormone Receptor in the Tox21 Chemical Library” (Environmental Health Perspectives, 2019)
Where a name gives a salt, the structure may show the parent alone.

Assay: in vitro
Conditions: rat, gh3-tre-luc cells, AC50 (uM) modified / 1000
Work on `COC(=O)C(c1ccccc1)C1CCCCN1` (stereo not drawn) [Methylphenidate hydrochloride] yielded a CC50 at 24 h greater than 90 µM.
`Cc1ccc2ccc3cccc4ccc1c2c34` [1-Methylpyrene] showed a CC50 at 24 h greater than 90 µM.
Compound `CCCC=O` [Butyraldehyde] has a CC50 at 24 h greater than 90 µM.
In the case of `CN(C)CCOC(c1ccc(Cl)cc1)c1ccccn1` (stereo not drawn) [Carbinoxamine maleate], the CC50 at 24 h is reported as 23 µM.
For `Cc1cnc(C2=NC(=O)C(C)(C(C)C)N2)c(C(=O)O)c1` (stereo not drawn) [Imazapic], the CC50 at 24 h was greater than 90 µM.
Work on `O=C(Cl)c1cccc([N+](=O)[O-])c1` [3-Nitrobenzoyl chloride] yielded a CC50 at 24 h greater than 90 µM.
For `C=CC(O)CCCCC` (stereo not drawn) [1-Octen-3-ol], the CC50 at 24 h was greater than 90 µM.
`NC(=O)c1ccccc1C(N)=O` [Phthalamide] gave a CC50 at 24 h greater than 90 µM.
`CC(COC(C)(C)C)OCCCO` (stereo not drawn) [Di(propylene glycol) tert-butyl ether] showed a CC50 at 24 h greater than 90 µM.
Work on `C(COCC1CO1)OCC1CO1` (stereo not drawn) [Ethylene glycol diglycidyl ether] yielded a CC50 at 24 h greater than 90 µM.
With `O=C1CC[C@@H](C(=O)N[C@H]2C[C@@H]2c2ccccc2)N1` [Rolicyprine] the CC50 at 24 h was greater than 50 µM.
With `COC(=O)CCC(=O)O` [Monomethyl succinate] the CC50 at 24 h was greater than 90 µM.
Compound `c1ccc(B(c2ccccc2)c2ccccc2)cc1` [Triphenylborane] has a CC50 at 24 h greater than 90 µM.
`c1ccc(-n2cnnn2)cc1` [1-Phenyl-1H-tetrazole] showed a CC50 at 24 h greater than 50 µM.
With `CC(C)(O)Cc1ccccc1` [2-Methyl-1-phenylpropan-2-ol] the CC50 at 24 h was greater than 90 µM.
For `CCCc1nc(C(C)(C)O)c(C(=O)OCc2oc(=O)oc2C)n1Cc1ccc(-c2ccccc2-c2nnn[nH]2)cc1` [Olmesartan medoxomil], the CC50 at 24 h was greater than 50 µM.
For `O=[N+]([O-])c1cccc2ccccc12` [1-Nitronaphthalene], the CC50 at 24 h was greater than 90 µM.
`NC(=O)OCC(COC(N)=O)c1ccccc1` [Felbamate] gave a CC50 at 24 h greater than 90 µM.
With `CNCCCC1c2ccccc2C=Cc2ccccc21` [Protriptyline hydrochloride] the CC50 at 24 h was 7.1 µM.
Compound `c1cc2ccc3ccc4ccc5cccc6c(c1)c2c3c4c56` [Benzo(g,h,i)perylene] has a CC50 at 24 h greater than 4 µM.
With `CS/C(C)=N\OC(=O)N(C)SN(C)C(=O)O/N=C(\C)SC` [Thiodicarb] the CC50 at 24 h was 39.7 µM.
For `CCCC[C@H](CC)COC(=O)/C=C/c1ccc(OC)cc1` [Octinoxate], the CC50 at 24 h was greater than 90 µM.
`CC(C)(C)C(=O)CCl` [1-Chloropinacolone] gave a CC50 at 24 h greater than 90 µM.
`CC1=Nc2ccc3ccccc3c2C1(C)C` [1,1,2-Trimethyl-1H-benzo[e]indole] gave a CC50 at 24 h greater than 90 µM.
For `CC(=O)Nc1ccc(S(=O)(=O)Cl)cc1` [4-(Acetylamino)benzenesulfonyl chloride], the CC50 at 24 h was greater than 90 µM.
Compound `NC(=O)c1cccc([N+](=O)[O-])c1` [3-Nitrobenzamide] has a CC50 at 24 h greater than 90 µM.
Compound `O=C1CCc2cc(OCCCCc3nnnn3C3CCCCC3)ccc2N1` [Cilostazol] has a CC50 at 24 h greater than 50 µM.
In the case of `CC(=O)Oc1ccc([N+](=O)[O-])cc1CCl` [2-Acetoxy-5-nitrobenzyl chloride], the CC50 at 24 h is reported as 67 µM.
Compound `CC(CN1c2ccccc2Sc2cccnc21)N(C)C` (stereo not drawn) [Isothipendyl hydrochloride] has a CC50 at 24 h of 28 µM.
In the case of `CCCCCC(C)O` (stereo not drawn) [2-Heptanol], the CC50 at 24 h is reported as greater than 90 µM.
Compound `CC(CCC(=O)O)C(=O)O` (stereo not drawn) [2-Methylpentanedioic acid] has a CC50 at 24 h greater than 90 µM.
With `Nc1ccccc1N` [1,2-Phenylenediamine dihydrochloride] the CC50 at 24 h was greater than 90 µM.
In the case of `Clc1nc(Cl)c(Cl)c(Cl)c1Cl` [Pentachloropyridine], the CC50 at 24 h is reported as greater than 90 µM.
In the case of `O=[N+]([O-])c1cccc(CCl)c1` [3-Nitrobenzyl chloride], the CC50 at 24 h is reported as greater than 90 µM.
`C=C(C)C(=O)OCC(C)O` (stereo not drawn) [2-Hydroxypropyl 2-methylacrylate] gave a CC50 at 24 h greater than 90 µM.
With `CC[C@]1(O)C[C@H]2CN(CCc3c([nH]c4ccccc34)[C@@](C(=O)OC)(c3cc4c(cc3OC)N(C=O)[C@H]3[C@@](O)(C(=O)OC)[C@H](OC(C)=O)[C@]5(CC)C=CCN6CC[C@]43[C@@H]65)C2)C1` [Vincristine] the CC50 at 24 h was 0.12 µM.
Work on `COC(=O)CCc1ccc(OCC(O)CNC(C)C)cc1` (stereo not drawn) [Esmolol hydrochloride] yielded a CC50 at 24 h greater than 50 µM.
Work on `NC(=O)C[C@@H](N)C(=O)O` [D-Asparagine hydrate] yielded a CC50 at 24 h greater than 50 µM.
Work on `O=C(O)C(O)[C@H](O)[C@@H](O)[C@H](O)[C@H](O)CO` (stereo partly drawn) [D-Gluco-heptonic acid, monosodium salt] yielded a CC50 at 24 h greater than 90 µM.
`COc1ccc(C[C@@H](C)NC[C@H](O)c2ccc(O)c(NC=O)c2)cc1` [Formoterol hemifumarate] showed a CC50 at 24 h greater than 50 µM.
Work on `NC(=O)NC(=O)Cc1ccccc1` [Phenacemide] yielded a CC50 at 24 h greater than 50 µM.
Work on `O=S(=O)(O)c1ccccc1` [Benzenesulfonic acid] yielded a CC50 at 24 h greater than 90 µM.
For `CC(C)OC(=O)c1cc(C(=O)OC(C)C)cc([N+](=O)[O-])c1` [Nitrothal-isopropyl], the CC50 at 24 h was greater than 90 µM.
With `CCOc1cc(CC(=O)N[C@@H](CC(C)C)c2ccccc2N2CCCCC2)ccc1C(=O)O` [Repaglinide] the CC50 at 24 h was greater than 20 µM.
`CC(C)[C@@H]1CC[C@@H](C)C[C@H]1OC(=O)c1ccccc1O` [Menthyl salicylate] gave a CC50 at 24 h greater than 50 µM.
`ClCCOCCCl` [Bis(2-chloroethyl) ether] gave a CC50 at 24 h greater than 90 µM.
Work on `CC(=O)O[C@H]1C[C@H](O[C@H]2[C@@H](O)C[C@H](O[C@H]3[C@@H](O)C[C@H](O[C@H]4CC[C@@]5(C)[C@H](CC[C@@H]6[C@@H]5CC[C@]5(C)[C@@H](C7=CC(=O)OC7)CC[C@]65O)C4)O[C@@H]3C)O[C@@H]2C)O[C@H](C)[C@H]1O[C@@H]1O[C@H](CO)[C@@H](O)[C@H](O)[C@H]1O` [Lanatoside A] yielded a CC50 at 24 h greater than 50 µM.
`OCC(O)CN1CCN(c2ccccc2)CC1` (stereo not drawn) [Dropropizine] showed a CC50 at 24 h greater than 50 µM.
With `C=CC1CO1` (stereo not drawn) [1,2-Epoxy-3-butene] the CC50 at 24 h was greater than 100 µM.
For `CCCCP(CCCC)CCCC` [Tributylphosphine], the CC50 at 24 h was greater than 90 µM.
For `CC/C=C\C/C=C\C/C=C\CCCCCCCC(=O)OCC` [Ethyl linolenate], the CC50 at 24 h was greater than 90 µM.
`CC(C)(CCl)c1ccccc1` [Neophyl chloride] showed a CC50 at 24 h greater than 90 µM.
In the case of `CN(C)c1ccncc1` [N,N-dimethylpyridin-4-amine], the CC50 at 24 h is reported as greater than 90 µM.
In the case of `CCCCCCO` [1-Hexanol], the CC50 at 24 h is reported as greater than 90 µM.
With `C=C1CC[C@H](O)C/C1=C/C=C1\CCC[C@]2(C)[C@@H]([C@H](C)CC[C@@H](O)C(C)(C)O)CC[C@@H]12` [24R,25-Dihydroxyvitamin D3] the CC50 at 24 h was 23.4 µM.
`CCOC(=O)OC(C)OC(=O)[C@@H]1N2C(=O)[C@@H](NC(=O)[C@H](N)c3ccccc3)[C@H]2SC1(C)C` (stereo partly drawn) [Bacampicillin hydrochloride] gave a CC50 at 24 h greater than 20 µM.
For `Oc1cccc(O)c1O` [Pyrogallol], the CC50 at 24 h was 44.6 µM.
`C=CCN1C(=O)C(CC(C)C)NC1=S` (stereo not drawn) [Albutoin] showed a CC50 at 24 h greater than 50 µM.
With `N=C1NC(=O)N2CC12` (stereo not drawn) [Imexon] the CC50 at 24 h was greater than 50 µM.

Same assay, conditions: rat, gh3-tre-luc cells, AC50 (uM) modified / 1000, Tox21_110001=Tox21_110665; viability, 1 nM T3 present, 24 h
`CCC1(c2cccc(O)c2)CCCCN(C)C1` (stereo not drawn) [Meptazinol hydrochloride] showed a CC50 at 24 h greater than 20 µM.

Same assay, conditions: rat, gh3-tre-luc cells, AC50 (uM) modified / 1000, Tox21_110001=Tox21_112610; viability, 1 nM T3 present, 24 h
`CCOc1ccc2c3c1O[C@H]1[C@@H](O)C=C[C@H]4[C@@H](C2)N(C)CC[C@@]341` [Ethylmorphine] showed a CC50 at 24 h greater than 50 µM.

Same assay, conditions: rat, gh3-tre-luc cells, AC50 (uM) modified / 1000, Tox21_110001=Tox21_201053; viability, 1 nM T3 present, 24 h
Compound `CCOC(=O)CCl` [Ethyl chloroacetate] has a CC50 at 24 h greater than 90 µM.

Same assay, conditions: rat, gh3-tre-luc cells, AC50 (uM) modified / 1000, Tox21_110001=Tox21_201109; viability, 1 nM T3 present, 24 h
In the case of `ClCC(Cl)(Cl)Cl` [1,1,1,2-Tetrachloroethane], the CC50 at 24 h is reported as greater than 100 µM.

Same assay, conditions: rat, gh3-tre-luc cells, AC50 (uM) modified / 1000, Tox21_110001=Tox21_301172; viability, 1 nM T3 present, 24 h
With `CCOP(=O)(OCC)OP(=O)(OCC)OCC` [Tetraethyl pyrophosphate] the CC50 at 24 h was greater than 90 µM.

Same assay, conditions: rat, gh3-tre-luc cells, AC50 (uM) modified / 1000, Tox21_110001=Tox21_400013; viability, 1 nM T3 present, 24 h
In the case of `O=[N+]([O-])c1c(Cl)c(Cl)cc(Cl)c1Cl` [2,3,5,6-Tetrachloronitrobenzene], the CC50 at 24 h is reported as greater than 90 µM.

Same assay, conditions: rat, gh3-tre-luc cells, AC50 (uM) modified / 1000, Tox21_110001=Tox21_400051; viability, 1 nM T3 present, 24 h
With `O=S(=O)(O)C(F)(F)C(F)(F)C(F)(F)C(F)(F)F` [Potassium perfluorobutanesulfonate] the CC50 at 24 h was greater than 100 µM.
